Read-outs that look alike come from different tables or passages of the source.
Legend:
[1] = target: T1, GST-E6/His-E6AP (Human papillomavirus type 16, UniProt P03126); assay: AlphaScreen bead-based binding assay GST-E6/His-E6AP; set-up: species or system HPV 16; conditions: for EC50 for GST-E6/His-E6AP interaction: bead-based assay, 1.4 μM–3.2 mM tested
T1 construct: made in house
Procedure: (§1) Figure 2 3-(1H-indol-1yl)propan-1-amine (1), three benzimidazole derivatives (2–4), and spinacine (5) inhibit protein–protein interactions. Five compounds at the indicated concentrations (1.4 μM–3.2 mM) were tested using our bead-based screening assay for their ability to inhibit three different protein/protein interactions: (a) GST-E6/His-caspase 8; (b) GST-E6/HisE6AP; and (c) GST-caspase 8/His-caspase 8. Binding in the presence of 1.4 μM of the test compound was set at 100%. Experiments were performed in triplicate, and error bars indicate the S.D.
(§2) The construction of the pGEX-E6, pTriEx-E6AP, and pTriEx-Caspase-8 DED plasmids has been reported.[33] Expression and purification of GSTE6, His-E6AP, and His-Caspase-8 DED were carried out as previously described.[33], [37] GST-tagged and His-tagged proteins were diluted into GST dilution buffer (PBS pH 8.0, 5% glycerol, 2 mM DTT) and His dilution buffer (20 mM Hepes pH 7.4, 150 mM NaCl, 2 mMKCl, 5% glycerol, 2 mM DTT), respectively. Protein concentration was measured using Coomassie Plus – The Better Bradford Assay Reagent (Thermo Scientific, Waltham, MA, USA). Purity of the isolated proteins was estimated following separation by sodium dodecyl sulfate-polyacrylamide gel electrophoresis (SDS-PAGE) and Coomassie staining.
(§3) AlphaScreen Technology was used to assess the interactions between GST-E6, GST-caspase 8, His-E6AP, and His-caspase 8. Binding assays were performed in white 384-well plates (Perkin-Elmer) in a total volume of 25 μl as previously described.[33] Briefly, 5 μl (50 ng) of GST-E6 and 5 μl (87.5 ng) of His-caspase 8 were included in each reaction mixture with 5 μl blocking buffer (0.5 mg BSA, 0.5% Tween 20 in PBS) in the absence or presence of 10 μM of each test chemical. Members of the library were present at 10 μM in DMSO. After a 1-h incubation of the mixture at room temperature, 5 μl donor beads and 5 μl acceptor beads (Perkin-Elmer) were added to each well according to the manufacturer's protocol. The mixture was incubated in the dark at room temperature overnight, and the emitted signal was detected using the Envision Multilabel plate reader (Perkin-Elmer). In the presence of test chemicals, the binding affinity was calculated as a percentage of the binding in the presence of carrier only (DMSO).

[2] = target: T2, GST-E6/His-caspase 8 (Human papillomavirus type 16, UniProt P03126); assay: AlphaScreen bead-based binding assay GST-E6/His-caspase 8; set-up: species or system HPV 16; conditions: for EC50 for GST-E6/His-caspase 8 interaction: bead-based assay, 1.4 μM–3.2 mM tested
T2 construct: made in house
T2 sequence (P03126 whole entry): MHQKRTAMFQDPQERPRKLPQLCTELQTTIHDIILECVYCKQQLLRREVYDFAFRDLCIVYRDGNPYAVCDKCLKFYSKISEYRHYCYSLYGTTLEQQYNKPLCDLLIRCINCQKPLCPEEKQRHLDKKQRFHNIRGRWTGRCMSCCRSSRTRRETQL
Procedure: as §1, §2, §3

[3] = target: GST-caspase 8/His-caspase 8 (Homo sapiens, UniProt Q14790); assay: AlphaScreen counter-screen GST-caspase 8/His-caspase 8; type: binding
Sequence of GST-caspase 8/His-caspase 8 (Q14790 1-184): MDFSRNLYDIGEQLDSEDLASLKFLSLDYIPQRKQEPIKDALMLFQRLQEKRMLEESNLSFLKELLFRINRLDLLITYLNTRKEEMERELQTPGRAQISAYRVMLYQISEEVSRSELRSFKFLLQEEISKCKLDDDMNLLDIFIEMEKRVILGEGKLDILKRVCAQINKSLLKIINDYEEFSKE
Procedure: as §1
To ask whether this inhibition was specific, we employed a counter-screening assay in which we assessed the ability of candidates to inhibit the binding of GST-caspase 8 to His-caspase 8; those that did were to be eliminated. In this counter-screening assay, the materials in each well were the same as in the primary screen, with the exception that GST-caspase 8 replaced GST-E6.
as §3

[4] = tested on: SiHa cells; assay: TRAIL-induced apoptosis in SiHa cells (MTT); type: cell-based, human; conditions: SiHa cells, compound 4 h prior to TRAIL 100 ng/ml + cycloheximide 5 μg/ml, overnight, MTT
Procedure: Figure 3 (a) HPV^+ SiHa cells are resistant to TRAIL-induced apoptosis as compared with the human osteosarcoma cell line U2OS. Cells (2 × 10^4 cells per well) were seeded into a 96-well plate, allowed to incubate overnight, and then treated with the indicated concentration of TRAIL in the presence of cycloheximide (5 μg/ml). The viability of cells was measured after overnight incubation using the MTT assay; the viability of cells untreated with TRAIL was set at 100% for each group. (b) The indicated concentrations of three small molecules were added to SiHa cells, and an MTT assay was preformed after overnight incubation. The viability of cells untreated with small molecules was set as 100%. (c) The indicated concentrations of myricetin or spinacine were added 4 h prior to TRAIL (100 ng/ml) in the presence of cycloheximide (5 μg/ml) and incubated at 37 °C overnight. The viability of cells untreated with small molecules was set at 100%. (d and e) SiHa cells (2 × 10^4 cells per well) were seeded into a 96-well plate and allowed to incubate overnight. In all, 100 μM of myricetin and 50 μM of spinacine were added 4 h prior to either (d) doxorubicin or (e) cisplatin. Cell viability was measured after overnight incubation using the MTT assay, and the viability of cells untreated with either myricetin or spinacine was set at 100%. Experiments were performed in triplicate, and error bars indicate the S.D.
Figure 5 Myricetin and spinacine (5) can re-sensitize HPV^+, but not HPV^−, cells to treatment with TRAIL. SiHa (2 × 10^4 cells per well) and C33A cells (1 × 10^4 cells per well) were seeded into a 96-well plate and allowed to incubate overnight, and then cells were pretreated in the presence or absence of (a) myricetin (100 μM) or (b) spinacine (50 μM) for 4 h. The indicated concentration of TRAIL along with cycloheximide (5 μg/ml) was added, and the cells were allowed to incubate overnight. Cell viability was measured by MTT assay, and the viability of cells untreated with TRAIL was set at 100%. Experiments were performed in triplicate, and error bars indicate the S.D.
The extracellular domain of human TRAIL was cloned into a pTriEx expression plasmid containing N-terminal Hisx6 tag. His-TRAIL was expressed in the E. coli BL-21 pLys strain and purified as previously described. Doxorubicin and cisplatin were purchased from Sigma. His-TRAIL, doxorubicin, and cisplatin were diluted in PBS to the desired concentration before using. To measure cell survival following treatment with TRAIL, cisplatin and doxorubicin, SiHa (2 × 10^4/well), C33A (1 × 10^4/well), and HNSCC cells (2 × 10^4/well) were seeded into 96-well plates and allowed to adhere overnight. Small molecules at the desired concentration were added and incubated at 37 °C for 4 h. As indicated, TRAIL, cisplatin, or doxorubicin was then added. The TRAIL treatment group contained cycloheximide (5 μg/ml) to inhibit de novo protein synthesis, and the cells were incubated for 16 h prior to measuring cell viability by the MTT assay preformed as described previously.[38] All experiments were repeated at least three times (three biological replicates, carried out on different days), with each experimental group measured in triplicate within each of these individual experiments. Data presented are from a representative experiment.

[5] = counter-screen, bead-based assay, 1.4 μM–3.2 mM tested

T1 sequence (P03126 whole entry): as the sequence (P03126 whole entry) above

Row | SMILES | EC50 [1] [µM] | EC50 [2] [µM] | EC50 ([3]; counter-screen, bead-based assay, 1.4 μM–3.2 mM tested, read-out: EC50 for GST-caspase 8/His-caspase 8 interaction) [µM] | EC50 [3] [µM] | EC50 for GST-E6/His-E6AP interaction [1] | EC50 for GST-E6/His-caspase 8 interaction [2] | EC50 for GST-caspase 8/His-caspase 8 interaction [3, 5] | EC50 for TRAIL-induced apoptosis [4]
1 | NCCCn1ccc2ccccc21 [compound 1, 3-(1H-indol-1-yl)propan-1-amine methanesulfonate] | 670 | 630 | 830 | – | – | – | – | –
2 | c1ccc2[nH]cnc2c1 [compound 2, benzimidazole] | 1480 | 1040 | – | 1050 | – | – | – | –
3 | OCn1cnc2ccccc21 [compound 3, 1H-benzimidazole-1-methanol] | – | – | – | – | No Inhibition | No Inhibition | No Inhibition | No sensitization
4 | COCc1nc2ccccc2[nH]1 [compound 4, 2-(methoxymethyl)-1H-benzimidazole] | – | – | – | – | No inhibition | No inhibition | No inhibition | –
